{"source": "paper PMC3789174", "about": "(Cell Death & Disease, 2013)", "system": "PBMCs from CLL patients", "test": "Peptide-induced cell death, PI staining and FACS", "type": "cell-based, human", "conditions": "relatively high concentrations; data not shown"}
{"compound": "Nc1nc(F)nc2c1ncn2[C@@H]1O[C@H](CO)[C@@H](O)[C@@H]1O", "note": "[fludarabine]", "values": [{"measurement": "cell killing effect on PBMCs isolated from CLL patients", "value": "only a weak cell killing effect"}]}
